Experimental data as given in patent publication US4446137A, “Cephalosporin derivative and pharmaceutical composition containing the derivative” (Kureha Kagaku Kogyo Kabushiki Kaisha, priority 1981, dated 1984).

Assays:
[1] = tested on: Bacteroides; assay: Effect on the intestinal bacterial colonies: Bacteroides count in mouse feces; assay type: in vivo
Description: (§1) Each of the cephalosporin derivatives of the invention prepared in Examples 1 to 4 was orally administered to mice (one group consisting of five female ICR mice of 6-week-old) for two consecutive days at a dose of 500 mg/kg/day.
(§2) Before and one day after the administration, feces of each mouse was collected and diluted with an anaerobic diluent (phosphoric buffer solution) of 100 times by volume and the diluted feces was ground. 0.1 ml of the diluted and ground feces was smeared on each culture medium shown in Table 1 and cultured aerobically or anaerobically (according to the anaerobic glove box method) under each condition shown in Table 1 and the number of each bacterium shown in Table 1 was counted.
Bacteroides NBGT agar anaerobic, 37° C.,

[2] = tested on: Lactobacillus bifidus; assay: Effect on the intestinal bacterial colonies: L. bifidus count in mouse feces; assay type: in vivo
Description: as §1, §2
BS agar anaerobic, 37° C.,

[3] = tested on: Staphylococcus aureus IAM 1011; assay: Activation by rat liver homogenate (S-9 mix), proliferation-inhibiting circle, penicillin cup; assay type: cell-based; settings: 37° C., 20 min, ratio of circle diameter to that of the starting compound; for Proliferation-inhibiting index, before adding S-9 mix (control): phosphoric buffer instead of S-9 mix; for Proliferation-inhibiting index, after adding S-9 mix: rat liver S-9 mix; on all read-outs here: ranges in brackets are in %
Description: As an activating enzyme of metabolism, a rat liver homogenate (S-9, manufactured by Oriental Yeast Company, Japan) was used in the following composition per 1 ml (hereinafter referred to as S-9 mix). |S-9 0.5 ml |KCl 3.3 μmol |MgCl2.6H2 O 8 μmol |Glucose 6-phosphate 5 μmol |NADH 4 μmol |NADPH 4 μmol |0.2 M phosphoric buffer solution | 0.5 ml |(pH of 7.4) 0.1 ml of the solution of each of the cephalosporin derivatives of the invention prepared in Examples 1 to 4 at a concentration of 100 μg/ml was mixed with 0.9 ml of S-9 mix or 0.9 ml of 0.1 M phosphoric buffer solution (as a control) and the obtained mixture was incubated at 37° C. for 20 min with shaking. Staphylococcus aureus IAM 1011 was inoculated into a Mueller-Hinton's culture medium and cultured at 37° C. for 18 hours. The culture medium was adjusted to a cell concentration of 1×10^8 per 1 ml and mixed with 50 times by volume of Mueller-Hinton's agar culture medium to obtain an agar plate. A penicillin cup of 8 mm in diameter was placed on the agar plate prepared above, and into the cup 0.1 ml of the mixture containing the cephalosporin derivative prepared above was introduced and allowed to stand at 4° C. for 2 hours, and then cultured at 37° C. for 18 hours to measure the diameter of a circle in which the proliferation of bacteria was inhibited (proliferation-inhibiting circle). In Table 4, the proliferation-inhibiting index is shown in the ratio (%) of the diameter of the proliferation-inhibiting circle obtained by using each of the cephalosporin derivatives of the invention to that obtained by using each of the starting compound in preparing each of the cephalosporin derivatives of the invention.

[4] = tested on: Lactobacillus acidophilus; assay: Effect on the intestinal bacterial colonies: L. acidophilus count in mouse feces; assay type: in vivo
Description: as §1, §2
Lactobacillus acidophilus
LBS agar anaerobic, 37° C.,

[5] = tested on: Escherichia coli IFO 12734; assay: Antibacterial activity (MIC), agar plate, E. coli; assay type: cell-based; set-up: unit not given beside the values; settings: Mueller-Hinton agar, 37° C., 18 to 24 hours; unit not given
Description: (§3) Antibacterial activity of each of the cephalosporin derivatives of the invention prepared in Examples 1 to 4 was examined against the following two bacteria according to the standard method of Japan Society of Chemitherapy: Escherichia coli IFO 12734 and Staphylococcus aureus IAM 1011.
(§4) Each bacterial strain was inoculated into the Mueller-Hinton's culture medium and cultured at 37° C. for 18 to 48 hours. The cultured medium was diluted so as to contain 1×10^6 cells of the bacteria per one ml, and the obtained medium was used as the bacterial specimen.
(§5) Agar plates were prepared by adding one part by weight of each solution of the cephalosporin derivative of the invention at a predetermined concentration to nine parts by weight of Mueller-Hinton's culture medium.
(§6) A loopful amount of the bacterial specimen prepared above was smeared to make a streak of about 2 cm on each agar plate prepared above and cultured at 37° C. for 18 to 24 hours.
(§7) The minimum concentration for completely inhibiting proliferation of the bacteria (referred to as MIC) was determined.

[6] = tested on: Streptococcus spp.; assay: Effect on the intestinal bacterial colonies: Streptococcus spp. count in mouse feces; assay type: in vivo
Description: as §1, §2
TATAC agar aerobic, 37° C.,

[7] = tested on: Pseudomonas aeruginosa; assay: Effect on the intestinal bacterial colonies: Ps. aeruginosa count in mouse feces; assay type: in vivo
Description: as §1, §2
NAC agar aerobic, 37° C.,

[8] = tested on: Staphylococcus aureus IAM 1011; assay: Antibacterial activity (MIC), agar plate, Staph. aureus; assay type: cell-based; set-up: unit not given beside the values; settings: Mueller-Hinton agar, 37° C., 18 to 24 hours; unit not given
Description: as §3, §4, §5, §6, §7

[9] = tested on: Escherichia coli; assay: Effect on the intestinal bacterial colonies: E. coli count in mouse feces; assay type: in vivo
Description: as §1, §2
DHL agar aerobic, 37° C.,

[10] = female ICR mice, oral 500 mg/kg/day for two days, one day after administration, before administration 6.4

Compound | Logarithmic value of the number of bacterial cells per one g of feces: Bacteroides ([1]; in vivo, po, 500 mg/kg/day) | Logarithmic value of the number of bacterial cells per one g of feces: L. bifidus ([2]; in vivo, po, 500 mg/kg/day) | Proliferation-inhibiting index, before adding S-9 mix (control) [3] | Proliferation-inhibiting index, after adding S-9 mix [3] | Logarithmic value of the number of bacterial cells per one g of feces: L. acidophilus ([4]; in vivo, po, 500 mg/kg/day) | MIC, E. coli [5] | Logarithmic value of the number of bacterial cells per one g of feces: Strept. spp. ([6]; in vivo, po, 500 mg/kg/day) | Logarithmic value of the number of bacterial cells per one g of feces: Ps. aeruginosa ([7]; in vivo, po, 500 mg/kg/day) | MIC, Staph. aureus [8] | Logarithmic value of the number of bacterial cells per one g of feces: E. coli [9, 10] | Logarithmic value of the number of bacterial cells per one g of feces: Bacteroides ([1]; female ICR mice, oral 500 mg/kg/day for two days, one day after administration, before administration 8.3) | Logarithmic value of the number of bacterial cells per one g of feces: L. bifidus ([2]; female ICR mice, oral 500 mg/kg/day for two days, one day after administration, before administration 8.4) | Logarithmic value of the number of bacterial cells per one g of feces: L. acidophilus ([4]; female ICR mice, oral 500 mg/kg/day for two days, one day after administration, before administration 9.0) | change of Lactobacillus acidophilus ([4]; mouse feces, result in words) | Logarithmic value of the number of bacterial cells per one g of feces: Strept. spp. ([6]; female ICR mice, oral 500 mg/kg/day for two days, one day after administration, before administration 6.8) | Logarithmic value of the number of bacterial cells per one g of feces: Ps. aeruginosa ([7]; female ICR mice, oral 500 mg/kg/day for two days, one day after administration, before administration <3.0) | change of the number of Escherichia coli compared to before administration ([9]; in vivo) | Logarithmic value of the number of bacterial cells per one g of feces: E. coli ([9]; in vivo, po, 500 mg/kg/day)
COC(=O)CCC(NC(=O)C1=C(COC(C)=O)CSC2C(NC(=O)Cc3cccs3)C(=O)N12)C(=O)OC (stereo not drawn) [Example 4, N-[1,3-bis(carbomethoxy)propyl]-7-(thienyl-2-acetamido)cephalosporanic acid amide] | 8.3 Logarithmic value of the numbe | 8.9 Logarithmic value of the numbe | + (1-33) | ++ (33-66) | 9.4 Logarithmic value of the numbe | ≥ 100 | 7.0 Logarithmic value of the numbe | < 3.9 Logarithmic value of the numbe | 12.5 | 6.0 Logarithmic value of the numbe |  |  |  |  |  |  |  | 
CCOC(=O)C(Cc1ccc(O)cc1)NC(=O)C1=C(COC(C)=O)CSC2C(NC(=O)Cc3cccs3)C(=O)N12 (stereo not drawn) [Example 3, N-[1-carboethoxy-2-(4-hydroxyphenyl)ethyl]-7-(thienyl-2-acetamido)cephalosporanic acid amide] | 8.7 Logarithmic value of the numbe | 8.2 Logarithmic value of the numbe | - (0) | ± (0-1) | 8.9 Logarithmic value of the numbe | ≥ 100 | 6.3 Logarithmic value of the numbe | < 3.0 Logarithmic value of the numbe | ≥ 12.5 | 6.5 Logarithmic value of the numbe |  |  |  |  |  |  |  | 
COC(=O)C[C@H](NC(=O)C1=C(COC(C)=O)CSC2C(NC(=O)Cc3cccs3)C(=O)N12)C(=O)OC (stereo partly drawn) [Example 1, N-[1,2-bis(carbomethoxy)ethyl]-7-(thienyl-2-acetamido)cephalosporanic acid amide] | 8.5 Logarithmic value of the numbe | 8.6 Logarithmic value of the numbe | - (0) | ± (0-1) | 9.0 Logarithmic value of the numbe | ≥ 100 | 7.0 Logarithmic value of the numbe | < 3.3 Logarithmic value of the numbe | ≥ 12.5 | 6.3 Logarithmic value of the numbe |  |  |  |  |  |  |  | 
COC(=O)[C@H](CCSC)NC(=O)C1=C(COC(C)=O)CSC2C(NC(=O)Cc3cccs3)C(=O)N12 (stereo partly drawn) [Example 2, N-(1-carbomethoxy-3-thiomethylpropyl)-7-(thienyl-2-acetamido)cephalosporanic acid amide] | 8.8 Logarithmic value of the numbe | 8.3 Logarithmic value of the numbe | - (0) | ± (0-1) | 8.9 Logarithmic value of the numbe | ≥ 100 | 6.6 Logarithmic value of the numbe | < 3.0 Logarithmic value of the numbe | ≥ 12.5 | 6.4 Logarithmic value of the numbe |  |  |  |  |  |  |  | 
CC(=O)OCC1=C(C(=O)O)N2C(=O)[C@@H](NC(=O)Cc3cccs3)[C@H]2SC1 [Cephalotin, reference compound] |  |  |  |  |  |  |  |  |  |  | 7.2 Logarithmic value of the numbe | 9.2 Logarithmic value of the numbe | 4.1 Logarithmic value of the numbe | decreased | 9.0 Logarithmic value of the numbe | < 3.0 Logarithmic value of the numbe | increased | 9.9 Logarithmic value of the numbe
